Assay results taken from patent publication US20240166626A1, “Compounds and Methods for Preventing, Treating, or Ameliorating Airway Disease” (THOMAS JEFFERSON UNIVERSITY, priority 2021, published 2024).

How the values were obtained:
Type in all cases: cell-based
HASM cells = test: Human airway smooth muscle cell scratch (migration) assay; settings: 24 hours post scratch, 20 ng/mL PDGF, relative to PDGF alone
Description: FIGS. 4A-4F: DFPQ inhibits internalization of the β2AR and protects from agonist induced desensitization in cell and tissue models. FIG. 4A: Effect of DFPQ on agonist-promoted internalization of the β2AR. HEK 293 cells stably expressing FLAG-β2AR were pre-incubated with 0.1% DMSO or 10 μM DFPQ for 30 min and then stimulated with the indicated concentrations of ISO for up to 60 min. Cells were fixed and receptor surface expression was measured by ELISA. […] Cells were lysed and cAMP production was measured by ELISA. […] FIG. 4C: Mouse airway tissue were contracted with 1 μM methacholine for 5 min and then incubated overnight with 1 μM ISO±1 μM DFPQ. Airway slices were washed, re-contracted with methacholine, and incubated with ISO for 1 hour (n=4 bronchioles). Airway contractility was measured by luminal area of bronchioles by microscopy at various times. FIG. 4D: Bar graphs represent normalized ISO-promoted relaxation from methacholine contraction on day 2 of treatment at the 25 min timepoint from 4 tracheal rings. *, p<0.05 FIG. 4E: HASM cells were scratched and incubated overnight in PDGF containing serum free media. Cells were imaged to evaluate migration into the scratched area. FIG. 4F: Densitometric analysis of migration into scratched area (n=3 experiments). ***, p<0.001; **, p<0.01
Cell culture GLOSENSOR™ cells (Promega) were maintained in Dulbecco's modified Eagle's medium (DMEM) containing 10% fetal bovine serum (FBS) and 200 μg/ml Hygromycin B. […]® ADRB2 cells (DiscoveRx) were maintained with the AssayComplete™ Cell Culture kit (DiscoveRx catalog #92-3107G). […] Cells were read every three minutes for 18 minutes on a PolarStar Optima plate reader (BMG) to establish peak signal. ISO was added to each well to a final concentration of 1 μM, and luminescence was determined in kinetic mode at room temperature (23-25° C.). Response was analyzed relative to forskolin (7 μM) and alprenolol (1 μM) as positive and negative controls, respectively. […] Luminescence was determined at room temperature (23-25° C.) on a PolarStar Optima plate reader (BMG). […]

β2AR [1] = biological target: T1, β2AR (Homo sapiens, UniProt P07550); test: GLOSENSOR cAMP production assay (bias = GloSensor IC50:PathHunter IC50); settings: GloSensor IC50:PathHunter IC50 ratio
β2AR [2] = biological target: T1, β2AR; test: […] high throughput assay for β-arrestin recruitment to β2AR; settings: PathHunter, ISO-promoted β-arrestin2 recruitment
[3] = Table 2, scaffold drawing 253, R1/R2 substituents
[4] = Table 3, scaffold drawing 254, R1/R3 substituents

T1 sequence (P07550 whole entry): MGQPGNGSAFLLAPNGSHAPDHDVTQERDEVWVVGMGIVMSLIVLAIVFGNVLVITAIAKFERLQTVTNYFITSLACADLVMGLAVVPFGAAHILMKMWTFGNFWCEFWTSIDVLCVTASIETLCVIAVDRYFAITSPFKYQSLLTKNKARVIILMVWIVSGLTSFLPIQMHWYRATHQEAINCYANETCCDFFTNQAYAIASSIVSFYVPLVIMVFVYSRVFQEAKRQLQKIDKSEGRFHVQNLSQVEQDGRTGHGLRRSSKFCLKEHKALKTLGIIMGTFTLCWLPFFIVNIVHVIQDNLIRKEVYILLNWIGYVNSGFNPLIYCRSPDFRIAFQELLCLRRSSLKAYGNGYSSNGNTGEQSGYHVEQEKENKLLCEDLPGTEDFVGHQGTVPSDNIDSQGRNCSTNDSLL

Arrestin fold bias (β2AR [1]; Table 2) | IC50 (β2AR [2]; [3]) [µM] | Arrestin fold bias (β2AR [1]; Table 3) | IC50 (β2AR [2]; [4]) [µM] | SMILES | HASM cell migration into scratched area (HASM cells)
– | – | – | – | CC(C)NCC(O)c1ccc(O)c(O)c1 (stereo not shown) [ISO, isoproterenol] | reduced migration
>10 | 4 ± 1 | – | – | c1ccc2c(NC3CCCCC3)nc(NC3CCCCC3)nc2c1 [cyclohexyl / N/A] | –
>100 | 3 ± 0.7 | – | – | Clc1ccc(Nc2nc(NC3CCCCC3)c3ccccc3n2)cc1Cl [m,p-dichlorophenyl / N/A] | –
>900 | 0.03 ± 0.02 | – | – | Fc1ccc(Nc2nc(NC3CCCCC3)c3cc(Br)ccc3n2)cc1F [m,p-difluorophenyl / 6-bromo] | –
>400 | 0.12 ± 0.05 | – | – | Fc1ccc(Nc2nc(NC3CCCCC3)c3cc(Cl)ccc3n2)cc1F [m,p-difluorophenyl / 6-chloro] | –
>45 | 0.36 ± 0.18 | – | – | Cc1ccc2nc(Nc3ccc(F)c(F)c3)nc(NC3CCCCC3)c2c1 [m,p-difluorophenyl / 6-methyl] | –
>1000 | – | – | – | Fc1ccc(Nc2nc(NC3CCCCC3)c3cc(C(F)(F)F)ccc3n2)cc1F [m,p-difluorophenyl / 6-trifluoromethyl] | –
>7 | 14 ± 3 | – | – | COc1ccc(Nc2nc(NC3CCCCC3)c3ccccc3n2)cc1OC [m,p-dimethoxyphenyl / N/A] | –
No | 21 ± 2 | – | – | Clc1cccc(CNc2nc(NC3CCCCC3)c3ccccc3n2)c1 [m-chlorobenzyl / N/A] | –
>10 | 6 ± 0.8 | – | – | Clc1cccc(Nc2nc(NC3CCCCC3)c3ccccc3n2)c1 [m-chlorophenyl / N/A] | –
– | – | >10 | 8 ± 5 | CC1CCCC(Nc2nc(Nc3cc(Cl)cc(Cl)c3)nc3ccccc23)C1 (stereo not shown) [m-dichlorophenyl / 3-methylcyclohexyl] | –
– | – | No | 30 ± 4 | Clc1cc(Cl)cc(Nc2nc(NCc3ccccc3)c3ccccc3n2)c1 [m-dichlorophenyl / benzyl] | –
– | – | ~2 | 9 ± 3 | Clc1cc(Cl)cc(Nc2nc(NC3CCCC3)c3ccccc3n2)c1 [m-dichlorophenyl / cyclopentyl] | –
>200 | 0.2 ± 0.05 | – | – | Fc1cc(F)cc(Nc2nc(NC3CCCCC3)c3ccccc3n2)c1 [m-difluorophenyl / N/A] | –
~3 | 3 ± 1 | – | – | FC(F)(F)c1cccc(Nc2nc(NC3CCCCC3)c3ccccc3n2)c1 [m-trifluoromethylphenyl / N/A] | –
>100 | 0.8 ± 0.2 | – | – | Clc1ccc(Nc2nc(NC3CCCCC3)c3ccccc3n2)cc1 [p-chlorophenyl / N/A] | –
>200 | 0.23 ± 0.07 | – | – | Fc1ccc(Nc2nc(NC3CCCCC3)c3ccccc3n2)cc1 [p-fluorophenyl / N/A] | –
~4 | 8 ± 2 | – | – | Cc1ccc(CNc2nc(NC3CCCCC3)c3ccccc3n2)cc1 [p-methylbenzyl / N/A] | –
>100 | 3 ± 0.7 | – | – | c1ccc(Nc2nc(NC3CCCCC3)c3ccccc3n2)cc1 [phenyl / N/A] | –
– | – | – | – | OCc1cc(C(O)CNCCCCCCOCCCCc2ccccc2)ccc1O (stereo not shown) [salmeterol] | reduced migration
